# Tests used:
# Format in all cases: in vivo
# Amaranthus retroflexus [1] = assay: Herbicidal activity, soil surface spray, azole-fungicide-treated stem cutting (Example 10); details: 3 cm stem cutting treated with azaconazole, bitertanol or another listed azole-type fungicide, four weeks after treatment
# Source text: A 30 to 40 cm stem cutting of sugar cane is placed on a wet soil, and germination is stimulated. The stem cutting from which a bud has grown to about 1 cm is selected, and the length of the stem cutting is adjusted to be 3 cm so that the stem cutting has one node. Azaconazole, bitertanol, bromoconazole, cyproconazole, difenoconazole, diniconazole, epoxyconazole, fenbuconazole, fluquinconazole, flusilazole, flutriafol, hexaconazole, imibenconazole, ipconazole, metconazole, myclobutanil, penconazole, propiconazole, prothioconazole, simeconazole, tebuconazole, tetraconazole, triadimenol, triticonazole, fenarimol, nuarimol, pyrifenox, imazalil, oxpoconazole fumarate, pefurazoate, procloraz or triflumizole is adhered to the stem cutting. A soil is packed into a plastic pot, and seeds of Amaranthus retroflexus are seeded thereon. The stem cutting of sugar cane treated with azaconazole, bitertanol, bromoconazole, cyproconazole, difenoconazole, diniconazole, epoxyconazole, fenbuconazole, fluquinconazole, flusilazole, flutriafol, hexaconazole, imibenconazole, ipconazole, metconazole, myclobutanil, penconazole, propiconazole, prothioconazole, simeconazole, tebuconazole, tetraconazole, triadimenol, triticonazole, fenarimol, nuarimol, pyrifenox, imazalil, oxpoconazole fumarate, pefurazoate, procloraz or triflumizole is planted in the soil packed into the pot at a depth of 2 cm. […] Thereafter, the pot for a test is placed in a greenhouse.
# Amaranthus retroflexus [2] = assay: Herbicidal activity, soil surface spray after planting (Example 4); details: 3 cm stem cutting, one node, soil surface spray on date of planting, four weeks after treatment
# Procedure: A 30 cm to 40 cm stem cutting of sugar cane is placed on a wet soil, and germination is stimulated. The stem cutting from which a bud has grown to about 1 cm is selected, and the length of the stem cutting is adjusted to be 3 cm so that the stem cutting has one node. A soil is packed into a plastic pot, and seeds of Amaranthus retroflexus are seeded thereon. The stem cutting of sugar cane is planted in the soil packed in the pot at a depth of 2 cm. […] Thereafter, the pot for a test is placed in a greenhouse.
# Amaranthus retroflexus [3] = assay: Herbicidal activity, spray above weed before planting, insecticide-treated stem cutting (Example 7); details: sprayed above weed, 3 cm stem cutting treated with clothianidin, thiamethoxiam, imidacloprid, dinotefuran, nitenpyram, acetamiprid or thiacloprid planted one week after treatment, four weeks after treatment
# Procedure: (§1) A soil is packed into a plastic pot, and seeds of Amaranthus retroflexus are seeded thereon. Thereafter, the pot is placed in a greenhouse, and the weed is grown.
# A 30 cm to 40 cm stem cutting of sugar cane is placed on a wet soil, and germination is stimulated. The stem cutting from which a bud has grown to about 1 cm is selected, and the length of the stem cutting is adjusted to be 3 cm so that the stem cutting has one node. Clothianidin, thiamethoxiam, imidacloprid, dinotefuran, nitenpyram, acetamiprid or thiacloprid is adhered to the stem cutting.
# (§2) The pot for a test is placed in a greenhouse.
# Amaranthus retroflexus [4] = assay: Herbicidal activity, soil surface spray, strobilurin-treated stem cutting (Example 8); details: 3 cm stem cutting treated with kresoxim-methyl, azoxystrobin or another listed strobilurin fungicide, four weeks after treatment
# Source text: A 30 cm to 40 cm stem cutting of sugar cane is placed on a wet soil, and germination is stimulated. The stem cutting from which a bud has grown to about 1 cm is selected, and the length of the stem cutting is adjusted to be 3 cm so that the stem cutting has one node. Kresoxim-methyl, azoxystrobin, trifloxystrobin, fluoxastrobin, picoxystrobin, pyraclostrobin, dimoxystrobin, pyribencarb, metominostrobin, orysastrobin, enestrobin, pyraoxystrobin or pyrametostrobin is adhered to the stem cutting. A soil is packed into a plastic pot, and seeds of Amaranthus retroflexus are seeded thereon. The stem cutting of sugar cane treated with kresoxim-methyl, azoxystrobin, trifloxystrobin, fluoxastrobin, picoxystrobin, pyraclostrobin, dimoxystrobin, pyribencarb, metominostrobin, orysastrobin, enestrobin, pyraoxystrobin or pyrametostrobin is planted in the soil packed into the pot at a depth of 2 cm. […] Thereafter, the pot for a test is placed in a greenhouse.
# Amaranthus retroflexus [5] = assay: Herbicidal activity, spray above weed before planting, strobilurin-treated stem cutting (Example 9); details: sprayed above weed, 3 cm stem cutting treated with kresoxim-methyl, azoxystrobin or another listed strobilurin fungicide planted one week after treatment, four weeks after treatment
# Procedure: as §1
# A 30 cm to 40 cm stem cutting of sugar cane is placed on a wet soil, and germination is stimulated. The stem cutting from which a bud has grown to about 1 cm is selected, and the length of the stem cutting is adjusted to be 3 cm so that the stem cutting has one node. Kresoxim-methyl, azoxystrobin, trifloxystrobin, fluoxastrobin, picoxystrobin, pyraclostrobin, dimoxystrobin, pyribencarb, metominostrobin, orysastrobin, enestrobin, pyraoxystrobin or pyrametostrobin is adhered to the stem cutting.
# as §2
# Amaranthus retroflexus [6] = assay: Herbicidal activity, spray above weed before planting, azole-fungicide-treated stem cutting (Example 11); details: sprayed above weed, 3 cm stem cutting treated with azaconazole, bitertanol or another listed azole-type fungicide planted one week after treatment, four weeks after treatment
# Procedure: A soil is packed into a plastic pat, and seeds of Amaranthus retroflexus are seeded thereon. Thereafter, the pot is placed in a greenhouse, and the weed is grown.
# A 30 cm to 40 cm stem cutting of sugar cane is placed on a wet soil, and germination is stimulated. The stem cutting from which a bud has grown to about 1 cm is selected, and the length of the stem cutting is adjusted to be 3 cm so that the stem cutting has one node.
# as §2
# Amaranthus retroflexus [7] = assay: Herbicidal activity, spray above weed before planting, metalaxyl-treated stem cutting (Example 13); details: sprayed above weed, 3 cm stem cutting treated with metalaxyl or metalaxyl-M planted one week after treatment, four weeks after treatment
# Procedure: A soil is packed into a plastic pot, and seeds of Amaranthus retroflexus are seeded thereon. Thereafter, a pot is placed in a greenhouse, and the weed is grown.
# A 30 cm to 40 cm stem cutting of sugar cane is placed on a wet soil, and germination is stimulated. The stem cutting from which a bud has grown to about 1 cm is selected, and the length of the stem cutting is adjusted to be 3 cm so that the stem cutting has one node. Metalaxyl or metalaxyl-M is adhered to the stem cutting.
# as §2
# Amaranthus retroflexus [8] = assay: Herbicidal activity, spray above weed one week before planting (Example 5); details: sprayed above weed three weeks after seeding, 3 cm stem cutting planted one week after treatment, four weeks after treatment
# Procedure: as §1
# A 30 cm to 40 cm stem cutting of sugar cane is placed on a wet soil, and germination is stimulated. The stem cutting from which a bud has been grown to about 1 cm is selected, and the length of the stem cutting is adjusted to be 3 cm so that the stem cutting has one node.
# as §2
# Amaranthus retroflexus [9] = assay: Herbicidal activity, soil surface spray, insecticide-treated stem cutting (Example 6); details: 3 cm stem cutting treated with clothianidin, thiamethoxiam, imidacloprid, dinotefuran, nitenpyram, acetamiprid or thiacloprid, four weeks after treatment
# Procedure: A 30 cm to 40 cm stem cutting of sugar cane is placed on a wet soil, and germination is stimulated. The stem cutting from which a bud has grown to about 1 cm is selected, and the length of the stem cutting is adjusted to be 3 cm so that the stem cutting has one node. Clothianidin, thiamethoxiam, imidacloprid, dinotefuran, nitenpyram, acetamiprid or thiacloprid is adhered to the stem cutting. A soil is packed into a plastic pot, and seeds of Amaranthus retroflexus are seeded thereon. The stem cutting of sugar cane treated with clothianidin, thiamethoxiam, imidacloprid, dinotefuran, nitenpyram, acetamiprid or thiacloprid is planted in the soil packed into the pot at a depth of 2 cm. […] Thereafter, the pot for a test is placed in a greenhouse.
# Amaranthus retroflexus [10] = assay: Herbicidal activity, soil surface spray, metalaxyl-treated stem cutting (Example 12); details: 3 cm stem cutting treated with metalaxyl or metalaxyl-M, four weeks after treatment
# Procedure: A soil is packed into a plastic pot. Seeds of Amaranthus retroflexus are seeded thereon.
structure (smiles),measurement,setting,value
CS(=O)(=O)NC(=O)c1cc(Oc2ccc(C(F)(F)F)cc2Cl)ccc1[N+](=O)[O-] [fomesafen],herbicidal activity against Amaranthus retroflexus,Amaranthus retroflexus [1],the control effect on a weed can be confirmed
same,herbicidal activity against Amaranthus retroflexus,Amaranthus retroflexus [2],the controlling effect on a weed can be confirmed
same,herbicidal activity against Amaranthus retroflexus,Amaranthus retroflexus [3],the controlling effect on a weed can be confirmed
same,herbicidal activity against Amaranthus retroflexus,Amaranthus retroflexus [4],the controlling effect on a weed can be confirmed
same,herbicidal activity against Amaranthus retroflexus,Amaranthus retroflexus [5],the controlling effect on a weed can be confirmed
same,herbicidal activity against Amaranthus retroflexus,Amaranthus retroflexus [6],the controlling effect on a weed can be confirmed
same,herbicidal activity against Amaranthus retroflexus,Amaranthus retroflexus [7],the controlling effect on a weed can be confirmed
same,herbicidal activity against Amaranthus retroflexus,Amaranthus retroflexus [8],the controlling effect on a weed can be confirmed
same,herbicidal activity against Amaranthus retroflexus,Amaranthus retroflexus [9],the controlling effect on a weed can be confirmed
same,herbicidal activity against Amaranthus retroflexus,Amaranthus retroflexus [10],the controlling effect on a weed can be confirmed

# From patent US20140329682A1, “METHOD OF CONTROLLING WEED IN A SUGAR CANE FIELD” (SUMITOMO CHEMICAL COMPANY, LIMITED, priority 2011, published 2014)
